{"source": "patent US20220401564A1", "about": "(DANA-FARBER CANCER INSTITUTE, INC., priority 2019, published 2022)", "biological_target": "T1, HDAC6 (Homo sapiens, UniProt Q9UBN7)", "T1 sequence (Q9UBN7 1-1215)": "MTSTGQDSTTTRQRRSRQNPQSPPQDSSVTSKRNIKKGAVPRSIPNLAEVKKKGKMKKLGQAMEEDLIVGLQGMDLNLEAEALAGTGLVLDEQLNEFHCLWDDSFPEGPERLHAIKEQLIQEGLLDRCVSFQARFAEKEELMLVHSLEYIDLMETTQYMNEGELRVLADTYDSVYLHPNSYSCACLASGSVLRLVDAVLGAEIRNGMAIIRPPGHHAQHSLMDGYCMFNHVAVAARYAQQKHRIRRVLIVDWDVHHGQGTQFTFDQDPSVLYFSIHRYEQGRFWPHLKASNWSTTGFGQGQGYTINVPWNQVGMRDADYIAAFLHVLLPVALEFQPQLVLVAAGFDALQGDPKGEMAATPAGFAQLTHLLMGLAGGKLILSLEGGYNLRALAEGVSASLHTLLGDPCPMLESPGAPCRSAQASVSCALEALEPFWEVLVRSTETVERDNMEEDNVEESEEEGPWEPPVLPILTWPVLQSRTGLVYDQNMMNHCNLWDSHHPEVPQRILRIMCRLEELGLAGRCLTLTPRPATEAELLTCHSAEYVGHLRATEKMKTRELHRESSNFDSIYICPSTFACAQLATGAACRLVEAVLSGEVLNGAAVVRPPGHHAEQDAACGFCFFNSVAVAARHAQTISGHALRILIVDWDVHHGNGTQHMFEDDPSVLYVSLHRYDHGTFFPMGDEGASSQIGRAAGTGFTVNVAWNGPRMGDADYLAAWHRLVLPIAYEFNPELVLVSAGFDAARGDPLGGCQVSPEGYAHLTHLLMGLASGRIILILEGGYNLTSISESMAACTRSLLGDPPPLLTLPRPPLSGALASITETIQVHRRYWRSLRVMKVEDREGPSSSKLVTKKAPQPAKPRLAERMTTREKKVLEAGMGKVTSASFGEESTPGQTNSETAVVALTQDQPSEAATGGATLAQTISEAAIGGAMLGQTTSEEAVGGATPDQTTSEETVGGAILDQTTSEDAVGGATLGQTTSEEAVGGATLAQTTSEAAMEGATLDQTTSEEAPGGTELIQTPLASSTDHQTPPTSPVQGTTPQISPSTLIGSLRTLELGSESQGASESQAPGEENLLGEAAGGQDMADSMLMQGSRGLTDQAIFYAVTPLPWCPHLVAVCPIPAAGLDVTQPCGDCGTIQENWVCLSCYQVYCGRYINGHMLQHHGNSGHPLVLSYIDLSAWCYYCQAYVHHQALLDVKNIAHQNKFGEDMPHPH", "experiment": "Change in cellular protein abundance (TMT proteomics) in Kelly cells", "format": "cell-based", "design": "relative change in relative protein abundance with treatment of Kelly cells; endogenous in cells; host or cells: Kelly cells", "settings": "FIG. 3A", "note": "“Also recorded” adds a separate entry of the source.", "data": [{"molecule": "Cc1ncsc1-c1ccc(CNC(=O)[C@@H]2C[C@@H](O)CN2C(=O)[C@@H](NC(=O)C2(F)CC2)C(C)(C)C)c(OCCCCCN(CCc2c[nH]c3ccccc23)Cc2ccc(/C=C/C(=O)NO)cc2)c1", "note": "[Compound 7, (2S,4R)—N-(2-((5-((2-(1H-indol-3-yl)ethyl)(4-((E)-3-(hydroxyamino)-3-oxoprop-1-en-1-yl)benzyl)amino)pentyl)oxy)-4-(4-methylthiazol-5-yl)benzyl)-1-((S)-2-(1-fluorocyclopropane-1-carboxamido)-3,3-dimethylbutanoyl)-4-hydroxypyrrolidine-2-carboxamide]", "values": [{"measurement": "HDAC6 protein levels, relative protein abundance compared to DMSO control", "result": "promote degradation; also recorded: significant and selective reduction"}]}]}
